These results are taken from patent publication US11370798B2 (Vertex Pharmaceuticals Incorporated, priority 2012, dated 2022).

The experiment concerns HCT116 colorectal cancer cells. Description: Cisplatin sensitization assay (96 h cell viability MTS).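 Note: Test-compound concentration that lowers the Cisplatin IC50 by a set fold.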 It counts as cell-based. As to conditions: compound and Cisplatin added simultaneously, Cisplatin sensitization value. The essentials: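 Viability read by MTS (1 h at 37° C) after 96 h co-exposure at 37° C, 5% CO2. Test compound and cisplatin were dosed simultaneously in a full concentration matrix, each 2-fold serially diluted from 10 μM final; sensitization values binned in μM.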
Consider `Nc1nn2cc(F)cnc2c1C(=O)Nc1cncc(F)c1N1CCC(C(=O)NCCN2CCC2)CC1` [I-G-42, 2-amino-N-(4-(4-((2-(azetidin-1-yl)ethyl)carbamoyl)piperidin-1-yl)-5-fluoropyridin-3-yl)-6-fluoropyrazolo[1,5-a]pyrimidine-3-carboxamide], for which the “Cisplatin Sensitization Assay” value is recorded as “+++ (Cisplatin sensitization value of <0.02 μM)”.

On to `Nc1nn2cc(F)cnc2c1C(=O)Nc1cncc(F)c1N1CCC(C(=O)N2CC(N3CCCC3)C2)CC1` [I-G-43, 2-amino-6-fluoro-N-(5-fluoro-4-(4-(3-(pyrrolidin-1-yl)azetidine-1-carbonyl)piperidin-1-yl)pyridin-3-yl)pyrazolo[1,5-a]pyrimidine-3-carboxamide], for which the “Cisplatin Sensitization Assay” value is recorded as “+++ (Cisplatin sensitization value of <0.02 μM)”.

As to `Nc1nn2cc(F)cnc2c1C(=O)Nc1cncc(F)c1N1CCC(C(=O)N2CC3CCC(C2)N3)CC1` [I-G-44, N-(4-(4-(3,8-diazabicyclo[3.2.1]octane-3-carbonyl)piperidin-1-yl)-5-fluoropyridin-3-yl)-2-amino-6-fluoropyrazolo[1,5-a]pyrimidine-3-carboxamide], the “Cisplatin Sensitization Assay” value is given as “+++ (Cisplatin sensitization value of <0.02 μM)”.

For `C[C@@H]1CN(C(=O)C2CCN(c3c(F)cncc3NC(=O)c3c(N)nn4cc(F)cnc34)CC2)CCN1` [I-G-45, (R)-2-amino-6-fluoro-N-(5-fluoro-4-(4-(3-methylpiperazine-1-carbonyl)piperidin-1-yl)pyridin-3-yl)pyrazolo[1,5-a]pyrimidine-3-carboxamide], the “Cisplatin Sensitization Assay” value was “+++ (Cisplatin sensitization value of <0.02 μM)”.

`Nc1nn2cc(F)cnc2c1C(=O)Nc1cncc(F)c1N1CCC(C(=O)N2CCN3CCC2C3)CC1` (stereo not drawn) [I-G-46, N-(4-(4-(1,4-diazabicyclo[3.2.1]octane-4-carbonyl)piperidin-1-yl)-5-fluoropyridin-3-yl)-2-amino-6-fluoropyrazolo[1,5-a]pyrimidine-3-carboxamide]: the “Cisplatin Sensitization Assay” value was “+++ (Cisplatin sensitization value of <0.02 μM)”.

With `C[C@H]1CN(C(=O)C2CCN(c3c(F)cncc3NC(=O)c3c(N)nn4cc(F)cnc34)CC2)CCN1C` [I-G-47, (S)-2-amino-N-(4-(4-(3,4-dimethylpiperazine-1-carbonyl)piperidin-1-yl)-5-fluoropyridin-3-yl)-6-fluoropyrazolo[1,5-a]pyrimidine-3-carboxamide], the “Cisplatin Sensitization Assay” value is on record as “+++ (Cisplatin sensitization value of <0.02 μM)”.

Regarding `Nc1nn2cc(F)cnc2c1C(=O)Nc1cncc(Cl)c1N1CCC(C(=O)N2CCNCC2)CC1` [I-G-48, 2-amino-N-(5-chloro-4-(4-(piperazine-1-carbonyl)piperidin-1-yl)pyridin-3-yl)-6-fluoropyrazolo[1,5-a]pyrimidine-3-carboxamide], the “Cisplatin Sensitization Assay” value is “+++ (Cisplatin sensitization value of <0.02 μM)”.

On to `Nc1nn2cc(F)cnc2c1C(=O)Nc1cncc(F)c1N1CCC(C(=O)N2CC(N3CCC3)C2)CC1` [I-G-49, N-(4-(4-([1,3′-biazetidine]-1′-carbonyl)piperidin-1-yl)-5-fluoropyridin-3-yl)-2-amino-6-fluoropyrazolo[1,5-a]pyrimidine-3-carboxamide], for which the “Cisplatin Sensitization Assay” value is listed as “+++ (Cisplatin sensitization value of <0.02 μM)”.

For `C[C@@H]1CN(C(=O)C2CCN(c3c(F)cncc3NC(=O)c3c(N)nn4cc(F)cnc34)CC2)CCN1C` [I-G-50, (R)-2-amino-N-(4-(4-(3,4-dimethylpiperazine-1-carbonyl)piperidin-1-yl)-5-fluoropyridin-3-yl)-6-fluoropyrazolo[1,5-a]pyrimidine-3-carboxamide], the “Cisplatin Sensitization Assay” value is recorded as “+++ (Cisplatin sensitization value of <0.02 μM)”.

On to `Nc1nn2cc(F)cnc2c1C(=O)Nc1cncc(F)c1N1CCC(C(=O)N2CC3CNCC3C2)CC1` (stereo not drawn) [I-G-51, 2-amino-6-fluoro-N-(5-fluoro-4-(4-(octahydropyrrolo[3,4-c]pyrrole-2-carbonyl)piperidin-1-yl)pyridin-3-yl)pyrazolo[1,5-a]pyrimidine-3-carboxamide], for which the “Cisplatin Sensitization Assay” value was “+++ (Cisplatin sensitization value of <0.02 μM)”.

On to `CN1C2CCC1CN(C(=O)C1CCN(c3c(F)cncc3NC(=O)c3c(N)nn4cc(F)cnc34)CC1)C2` [I-G-52, 2-amino-6-fluoro-N-(5-fluoro-4-(4-(8-methyl-3,8-diazabicyclo[3.2.1]octane-3-carbonyl)piperidin-1-yl)pyridin-3-yl)pyrazolo[1,5-a]pyrimidine-3-carboxamide], for which the “Cisplatin Sensitization Assay” value is “+++ (Cisplatin sensitization value of <0.02 μM)”.

Take `CN1CC2CC1CN2C(=O)C1CCN(c2c(F)cncc2NC(=O)c2c(N)nn3cc(F)cnc23)CC1` (stereo not drawn) [I-G-53, 2-amino-6-fluoro-N-(5-fluoro-4-(4-(5-methyl-2,5-diazabicyclo[2.2.1]heptane-2-carbonyl)piperidin-1-yl)pyridin-3-yl)pyrazolo[1,5-a]pyrimidine-3-carboxamide]: the “Cisplatin Sensitization Assay” value is given as “+++ (Cisplatin sensitization value of <0.02 μM)”.

`CN1CCN(C(=O)C2(C)CCN(c3c(F)cncc3NC(=O)c3c(N)nn4cc(F)cnc34)CC2)CC1` [I-G-54, 2-amino-6-fluoro-N-(5-fluoro-4-(4-methyl-4-(4-methylpiperazine-1-carbonyl)piperidin-1-yl)pyridin-3-yl)pyrazolo[1,5-a]pyrimidine-3-carboxamide]: the “Cisplatin Sensitization Assay” value is “+++ (Cisplatin sensitization value of <0.02 μM)”.

Take `Cc1cncc(NC(=O)c2c(N)nn3cc(F)cnc23)c1N1CCC(C(=O)N2CCN(C)CC2)CC1` [I-G-55, 2-amino-6-fluoro-N-(5-methyl-4-(4-(4-methylpiperazine-1-carbonyl)piperidin-1-yl)pyridin-3-yl)pyrazolo[1,5-a]pyrimidine-3-carboxamide]: the “Cisplatin Sensitization Assay” value is on record as “+++ (Cisplatin sensitization value of <0.02 μM)”.

In the case of `Cc1cncc(NC(=O)c2c(N)nn3cc(F)cnc23)c1N1CCC(C(=O)N2CCNCC2)CC1` [I-G-56, 2-amino-6-fluoro-N-(5-methyl-4-(4-(piperazine-1-carbonyl)piperidin-1-yl)pyridin-3-yl)pyrazolo[1,5-a]pyrimidine-3-carboxamide], the “Cisplatin Sensitization Assay” value is listed as “+++ (Cisplatin sensitization value of <0.02 μM)”.

Turning to `Nc1nn2cc(F)cnc2c1C(=O)Nc1cncc(F)c1N1CCC(C(=O)N2CC(N3CCCCC3)C2)CC1` [I-G-57, 2-amino-6-fluoro-N-(5-fluoro-4-(4-(3-(piperidin-1-yl)azetidine-1-carbonyl)piperidin-1-yl)pyridin-3-yl)pyrazolo[1,5-a]pyrimidine-3-carboxamide], the “Cisplatin Sensitization Assay” value is “+++ (Cisplatin sensitization value of <0.02 μM)”.

On to `Nc1nn2cc(F)cnc2c1C(=O)Nc1cncc(F)c1N1CCC(C(=O)N2CC[C@H](N3CCCC3)C2)CC1` [I-G-58, (S)—N-(4-(4-([1,3′-bipyrrolidine]-1′-carbonyl)piperidin-1-yl)-5-fluoropyridin-3-yl)-2-amino-6-fluoropyrazolo[1,5-a]pyrimidine-3-carboxamide], for which the “Cisplatin Sensitization Assay” value is reported as “+++ (Cisplatin sensitization value of <0.02 μM)”.

On to `Nc1nn2cc(F)cnc2c1C(=O)Nc1cncc(F)c1N1CCC(C(=O)N2CCC(N3CCCC3)CC2)CC1` [I-G-59, 2-amino-6-fluoro-N-(5-fluoro-4-(4-(4-(pyrrolidin-1-yl)piperidine-1-carbonyl)piperidin-1-yl)pyridin-3-yl)pyrazolo[1,5-a]pyrimidine-3-carboxamide], for which the “Cisplatin Sensitization Assay” value is given as “+++ (Cisplatin sensitization value of <0.02 μM)”.

On to `Nc1nn2cc(F)cnc2c1C(=O)Nc1cncc(F)c1N1CCC(C(=O)N2CCC(N3CCCCC3)CC2)CC1` [I-G-60, N-(4-(4-([1,4′-bipiperidine]-1′-carbonyl)piperidin-1-yl)-5-fluoropyridin-3-yl)-2-amino-6-fluoropyrazolo[1,5-a]pyrimidine-3-carboxamide], for which the “Cisplatin Sensitization Assay” value was “+++ (Cisplatin sensitization value of <0.02 μM)”.

With `C[C@H]1CN(C(=O)C2CCN(c3c(F)cncc3NC(=O)c3c(N)nn4cc(F)cnc34)CC2)CCN1` [I-G-61, (S)-2-amino-6-fluoro-N-(5-fluoro-4-(4-(3-methylpiperazine-1-carbonyl)piperidin-1-yl)pyridin-3-yl)pyrazolo[1,5-a]pyrimidine-3-carboxamide], the “Cisplatin Sensitization Assay” value is listed as “+++ (Cisplatin sensitization value of <0.02 μM)”.

As for `Nc1nn2cc(F)cnc2c1C(=O)Nc1cncc(F)c1N1CCC(C(=O)N2CCNC3CC32)CC1` (stereo not drawn) [I-G-62, N-(4-(4-(2,5-diazabicyclo[4.1.0]heptane-2-carbonyl)piperidin-1-yl)-5-fluoropyridin-3-yl)-2-amino-6-fluoropyrazolo[1,5-a]pyrimidine-3-carboxamide], the “Cisplatin Sensitization Assay” value is listed as “+++ (Cisplatin sensitization value of <0.02 μM)”.

Take `CC1(O)CN(C(=O)C2CCN(c3c(F)cncc3NC(=O)c3c(N)nn4cc(F)cnc34)CC2)C1` [I-G-63, 2-amino-6-fluoro-N-(5-fluoro-4-(4-(3-hydroxy-3-methylazetidine-1-carbonyl)piperidin-1-yl)pyridin-3-yl)pyrazolo[1,5-a]pyrimidine-3-carboxamide]: the “Cisplatin Sensitization Assay” value was “+++ (Cisplatin sensitization value of <0.02 μM)”.

In the case of `Nc1nn2cc(F)cnc2c1C(=O)Nc1cncc(F)c1N1CCC(C(=O)N2CCC(N3CCCCC3)C2)CC1` (stereo not drawn) [I-G-64, 2-amino-6-fluoro-N-(5-fluoro-4-(4-(3-(piperidin-1-yl)pyrrolidine-1-carbonyl)piperidin-1-yl)pyridin-3-yl)pyrazolo[1,5-a]pyrimidine-3-carboxamide], the “Cisplatin Sensitization Assay” value was “+++ (Cisplatin sensitization value of <0.02 μM)”.

As for `CN1CCN(C(=O)C2CCN(c3c(F)cncc3NC(=O)c3c(N)nn4cc(F)cnc34)CC2)C2CC21` (stereo not drawn) [I-G-65, 2-amino-6-fluoro-N-(5-fluoro-4-(4-(5-methyl-2,5-diazabicyclo[4.1.0]heptane-2-carbonyl)piperidin-1-yl)pyridin-3-yl)pyrazolo[1,5-a]pyrimidine-3-carboxamide], the “Cisplatin Sensitization Assay” value is recorded as “+++ (Cisplatin sensitization value of <0.02 μM)”.
